Assay results from BindingDB's records for doi:10.1021/np9904410 (Virginia Polytechnic Institute and State University, 2000).
pIC50: −log10 of the molar value.

Key:
[1] = Inhibition of topoisomerase 1 in Saccharomyces cerevisiae RS321N in galactose medium by microtiter plate assay
[2] = Inhibition of topoisomerase 1 in Saccharomyces cerevisiae RS321N in glucose medium by microtiter plate assay

Compound	pIC50 [1]	pIC50 [2]
COc1ccc(CCc2cc(OC)c(OC)c(OC)c2)c(O[C@H]2O[C@@H](CO)[C@H](O)[C@@H](O)[C@@H]2O)c1O	3.86	< 3.70
COc1ccc(/C=C\c2cc(OC)c(OC)c(OC)c2)c(O)c1O [combretastatins A-1]	5.32	5.24
